US6706663B2, “Herbicidal 3-heterocyclic substituted benzisothiazole and benzisoxazole compounds” (Wyeth, priority 2000, dated 2004)

What was measured:
ZEAMX (Corn, Field) = assay: Preemergence herbicidal evaluation; format: in vivo, Zea mays, L.; details: rated 4-5 weeks after treatment
[1] = tested on: TRZAWR (Wheat, Winter, cv Riband); assay: Postemergence herbicidal evaluation; format: in vivo, Triticum aestivum; details: postemergence
How it was run: (§1)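 Seedlings grown about two weeks in flats, sprayed, then kept under standard greenhouse care. Rated visually 4–5 weeks after treatment on a 0–9 scale (stand, vigour, malformation, size, chlorosis, overall appearance) relative to untreated control; repeat tests averaged.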

[2] = tested on: ECHCG (Echinochloa crus-galli); assay: Postemergence herbicidal evaluation; format: in vivo, (L.) Beau; details: postemergence
How it was run: as §1

[3] = tested on: ABUTH (Abutilon theophrasti); assay: Preemergence herbicidal evaluation; format: in vivo, Medic.; details: rated 4-5 weeks after treatment
[4] = tested on: SAGPY (Sagittaria pygmaea); assay: Flooded paddy, preemergence weed control; format: in vivo, L.; details: rated 3-4 weeks after treatment, 0-9 rating scale
How it was run: (§2)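 Visual 0–9 ratings versus controls scored stand, vigor, malformation, size, chlorosis and overall appearance. Plants grew from seeds or propagating organs sown 0.5 cm deep in silt loam, with water held 1.5–3 cm above the soil for the whole test under greenhouse care.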

[5] = tested on: GLXMAW (Soybean, Williams); assay: Preemergence herbicidal evaluation; format: in vivo, Glycine max, (L.) Merr. cv Williams; details: rated 4-5 weeks after treatment
[6] = tested on: CHEAL (Chenopodium album); assay: Preemergence herbicidal evaluation; format: in vivo, L.; details: rated 4-5 weeks after treatment
How it was run: (§3)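 Visual 0–9 rating versus control (stand, vigor, malformation, size, chlorosis, overall appearance), scored four to five weeks post-treatment. Preemergence spray of aqueous acetone solution onto freshly seeded soil cups; plants grown under conventional greenhouse care.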

[7] = tested on: CASOB (Cassia obtusifolia); assay: Preemergence herbicidal evaluation; format: in vivo, L.; details: rated 4-5 weeks after treatment
How it was run: as §3

[8] = tested on: AMBEL (Ambrosia artemisifolia); assay: Preemergence herbicidal evaluation; format: in vivo, L.; details: rated 4-5 weeks after treatment
How it was run: as §3

[9] = tested on: ECHORC (Echinochloa oryzoides); assay: Flooded paddy, preemergence weed control; format: in vivo, Echinochloa oryzoides (Ard.) Fritsch.; details: rated 3-4 weeks after treatment, 0-9 rating scale
How it was run: as §2

SETVI (Setaria viridis) = assay: Postemergence herbicidal evaluation; format: in vivo, (L.) Beau; details: postemergence
How it was run: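 Visual injury score (0-9: stand, vigor, malformation, size, chlorosis, overall appearance vs untreated control) taken four to five weeks post-spray. Two-week-old seedlings received about 0.0040 to 1.000 kg/ha active compound in acetone/water with 0.5% TWEEN 20.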

CYPIR (Cyperus iria) = assay: Flooded paddy, preemergence weed control; format: in vivo; details: rated 3-4 weeks after treatment, 0-9 rating scale
How it was run: as §2

[10] = tested on: IPOHE (Ipomoea hederacea); assay: Preemergence herbicidal evaluation; format: in vivo, (L.) Jacq.; details: rated 4-5 weeks after treatment
ORYSAT (Rice, Tebonnet) = assay: Flooded paddy, post-transplant rice tolerance; format: in vivo, Oryza sativa, (L.) Tebonnet; details: flooded paddy, post-transplant rice, rated 3-4 weeks after treatment, 0-9 rating scale
How it was run: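 Visual 0-9 rating against a control, covering stand, vigor, malformation, size, chlorosis and overall appearance. Treatment was applied after transplanting paired ten-day-old seedlings into flooded silt loam, with water kept 1.5 to 3 cm deep on greenhouse benches.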

[11] = tested on: MOOVA (Monochoria vaginalis); assay: Flooded paddy, preemergence weed control; format: in vivo, Presl.; details: rated 3-4 weeks after treatment, 0-9 rating scale
How it was run: as §2

For `CC(C)C1COC(c2nsc3ccc(-n4c(=O)cc(C(F)(F)F)n(C)c4=O)cc23)=N1` (stereo not drawn) [Compound 74, 3-[3-(4-isopropyl-2-oxazolin-2-yl)-1,2-benzisothiazol-5-yl]-1-methyl-6-(trifluoromethyl)uracil], the “Preemergence herbicidal rating ZEAMX” value (ZEAMX (Corn, Field); Rate 0.0620 kg/ha) was 2.0, the “Preemergence herbicidal rating ZEAMX” value (ZEAMX (Corn, Field); Rate 0.1250 kg/ha) was 2.0 and the “Preemergence herbicidal rating ZEAMX” value (ZEAMX (Corn, Field); Rate 0.2500 kg/ha) was 4.0. It also gave a TRZAWR herbicidal rating ([1]; rate 0.0320 kg/ha) of 3.5, a TRZAWR herbicidal rating ([1]; rate 0.0620 kg/ha) of 4.0 and an ECHCG herbicidal rating ([2]; rate 0.0320 kg/ha) of 2.0. For the same compound, the ECHCG herbicidal rating ([2]; rate 0.0620 kg/ha) was 2.0, the “Preemergence herbicidal rating ABUTH” value ([3]; Rate 0.0620 kg/ha) was 3.0 and the “Preemergence herbicidal rating ABUTH” value ([3]; Rate 0.1250 kg/ha) was 7.0. For the same compound, the “Preemergence herbicidal rating ABUTH” value ([3]; Rate 0.2500 kg/ha) was 9.0, the “herbicidal rating, SAGPY” value ([4]; rate 0.0080 kg/ha) was 0.0 and the “herbicidal rating, SAGPY” value ([4]; rate 0.0320 kg/ha) was 1.5. For the same compound, the “herbicidal rating, SAGPY” value ([4]; rate 0.1250 kg/ha) was 7.0, the “Preemergence herbicidal rating GLXMAW” value ([5]; Rate 0.0620 kg/ha) was 1.0 and the “Preemergence herbicidal rating GLXMAW” value ([5]; Rate 0.1250 kg/ha) was 1.0. The “Preemergence herbicidal rating GLXMAW” value ([5]; Rate 0.2500 kg/ha) was 9.0, the “Preemergence herbicidal rating CHEAL” value ([6]; Rate 0.0620 kg/ha) was 9.0 and the “Preemergence herbicidal rating CHEAL” value ([6]; Rate 0.1250 kg/ha) was 9.0. The “Preemergence herbicidal rating CHEAL” value ([6]; Rate 0.2500 kg/ha) was 9.0, the “Preemergence herbicidal rating CASOB” value ([7]; Rate 0.0620 kg/ha) was 0.0 and the “Preemergence herbicidal rating CASOB” value ([7]; Rate 0.1250 kg/ha) was 0.0. The “Preemergence herbicidal rating CASOB” value ([7]; Rate 0.2500 kg/ha) was 3.0, the “Preemergence herbicidal rating AMBEL” value ([8]; Rate 0.0620 kg/ha) was 0.0 and the “Preemergence herbicidal rating AMBEL” value ([8]; Rate 0.1250 kg/ha) was 6.0. For the same compound, the “Preemergence herbicidal rating AMBEL” value ([8]; Rate 0.2500 kg/ha) was 9.0, the “herbicidal rating, ECHORC” value ([9]; rate 0.0080 kg/ha) was 5.5 and the “herbicidal rating, ECHORC” value ([9]; rate 0.0320 kg/ha) was 8.0. The “herbicidal rating, ECHORC” value ([9]; rate 0.1250 kg/ha) was 9.0, the SETVI herbicidal rating (SETVI (Setaria viridis); rate 0.0320 kg/ha) was 2.0 and the SETVI herbicidal rating (SETVI (Setaria viridis); rate 0.0620 kg/ha) was 2.0. For the same compound, the “herbicidal rating, CYPIR” value (CYPIR (Cyperus iria); rate 0.0080 kg/ha) was 0.0, the “herbicidal rating, CYPIR” value (CYPIR (Cyperus iria); rate 0.0320 kg/ha) was 6.0 and the “herbicidal rating, CYPIR” value (CYPIR (Cyperus iria); rate 0.1250 kg/ha) was 9.0. The “Preemergence herbicidal rating IPOHE” value ([10]; Rate 0.0620 kg/ha) was 0.0, the “Preemergence herbicidal rating IPOHE” value ([10]; Rate 0.1250 kg/ha) was 0.0 and the “Preemergence herbicidal rating IPOHE” value ([10]; Rate 0.2500 kg/ha) was 8.0. The “herbicidal rating, ORYSAT (rice tolerance)” value (from here on “herbicidal rating, ORYSAT”) (ORYSAT (Rice, Tebonnet); rate 0.0080 kg/ha) was 1.5, the “herbicidal rating, ORYSAT” value (ORYSAT (Rice, Tebonnet); rate 0.0320 kg/ha) was 4.0 and the “herbicidal rating, ORYSAT” value (ORYSAT (Rice, Tebonnet); rate 0.1250 kg/ha) was 6.0. The “herbicidal rating, MOOVA” value ([11]; rate 0.0080 kg/ha) was 4.5, the “herbicidal rating, MOOVA” value ([11]; rate 0.0320 kg/ha) was 9.0 and the “herbicidal rating, MOOVA” value ([11]; rate 0.1250 kg/ha) was 9.0.
